# Source: patent publication US7365194B2 (Pondicherry University and Department of Biotechnology, priority 2004, dated 2008)
# Columns and labels:
# phytopathogens = conditions: in vitro, complete ionization to an inactive carboxylate ion; cited from earlier work
# [1] = system: plant, animal and human pathogens; experiment: Antimicrobial activity in acidic and alkaline pH; type: cell-based; conditions: in vitro
# Method: (§1) Assay plates were incubated at 28° C. for 3 days to observe the zone of growth-inhibition of test microorganisms.
# (§2) Test compound was dissolved in chloroform at various concentrations, separately loaded on to sterile filter paper discs (Whatman No.1, 6 mm diameter) and placed on the surface of agar plates pre-inoculated with the test pathogens. Assay plates were incubated at 27° C. for 72 hr for fungi and 27° C. to about 37° C. for 48 hr for bacteria.
# Botrytis cinera = experiment: Antimicrobial MIC, agar/disc diffusion; type: cell-based; conditions: 27° C. for 72 hr
# Method: as §1, §2
# Pseudomonas aeruginosa = experiment: Antimicrobial MIC, agar/disc diffusion; type: cell-based; conditions: 27° C. to about 37° C. for 48 hr
# Method: as §1, §2
# [2] = system: Fusarium oxysporum sub sp. cubense; experiment: Antimicrobial MIC, agar/disc diffusion; type: cell-based; conditions: 27° C. for 72 hr
# Method: as §1, §2
# Salmonella typhimurium = experiment: Antimicrobial MIC, agar/disc diffusion; type: cell-based; conditions: 27° C. to about 37° C. for 48 hr
# Method: as §1, §2
# Rhizoctonia solani = experiment: Antimicrobial MIC, agar/disc diffusion; type: cell-based; conditions: 27° C. for 72 hr
# Method: as §1, §2
# C. falcatum = experiment: Antimicrobial MIC, agar/disc diffusion; type: cell-based; conditions: 27° C. for 72 hr
# Method: as §1, §2
# Staphylococcus aureus = experiment: Antimicrobial MIC, agar/disc diffusion; type: cell-based; conditions: 27° C. to about 37° C. for 48 hr
# Method: as §1, §2
# Sarocladium oryzae = experiment: Antimicrobial MIC, agar/disc diffusion; type: cell-based; conditions: 27° C. for 72 hr
# Method: as §1, §2
# Escherichia coli = experiment: Antimicrobial MIC, agar/disc diffusion; type: cell-based; conditions: 27° C. to about 37° C. for 48 hr
# Method: as §1, §2
# [3] = system: Colletotrichum gleosporoides; experiment: Antimicrobial MIC, agar/disc diffusion; type: cell-based; conditions: 27° C. for 72 hr
# Method: as §1, §2
# C. capsici = experiment: Antimicrobial MIC, agar/disc diffusion; type: cell-based; conditions: 27° C. for 72 hr
# Method: as §1, §2
# Macrophomina phaeseolina = experiment: Antimicrobial MIC, agar/disc diffusion; type: cell-based; conditions: 27° C. for 72 hr
# Method: as §1, §2
# cell lines = experiment: MTT cytotoxicity assay; type: cell-based; set-up: dose or concentration left out as unconfirmed; conditions: average of three replicates
# Method: (§3) At the end of incubation, 20 μL MTT (5 mg/mL) was added and cells were incubated at 37° C. After 4 hr, MTT was removed and 100 μL of DMSO was added. Cell viability was determined by measuring the absorbance at a test wavelength of 570 nm.
# as §3, with “Cytotoxycity of dimer of phenazine-1-carboxylic acid natural product against cell lines was determined by MTT assay. […] At” for “At”
Compound,effectiveness in alkaline pH (phytopathogens),antimicrobial activity [1],MIC (Botrytis cinera),MIC (Pseudomonas aeruginosa),MIC [2],MIC (Salmonella typhimurium),MIC (Rhizoctonia solani),MIC (C. falcatum),MIC (Staphylococcus aureus),MIC (Sarocladium oryzae),MIC (Escherichia coli),MIC [3],MIC (C. capsici),MIC (Macrophomina phaeseolina),"OD @ 570 nm (cell lines; concentration 1, 24 hr at 37° C.)","OD @ 570 nm (cell lines; concentration 10, 24 hr at 37° C.)","OD @ 570 nm (cell lines; concentration 25, 24 hr at 37° C.)","OD @ 570 nm (cell lines; concentration 50, 24 hr at 37° C.)"
"O=C(O)c1cccc2nc3ccccc3nc12 [PCA, phenazine 1-carboxylic acid]",ineffective,–,–,–,–,–,–,–,–,–,–,–,–,–,–,–,–,–
dimer of phenazine-1-carboxylic acid,–,showed antimicrobial activity,14 µg/mL,>90 µg/mL,7 µg/mL,>120 µg/mL,2 µg/mL,5 µg/mL,>120 µg/mL,3 µg/mL,>100 µg/mL,7 µg/mL,7 µg/mL,12 µg/mL,0.531,0.472,0.366,0.285
